Values of other authors in patent US20220218877A1, “C[…] COMPOSITIONS” ([…], priority 2019, published 2022).

Conditions: depending upon the conditions

| Molecule | Solubility in aqueous solutions |
| --- | --- |
| CCCCCc1cc(O)c2c(c1)OC(C)(C)c1ccc(C)cc1-2 [cannabinol] | a few micrograms/ml or less |
| CCCCCc1cc(O)c2c(c1)OC(C)(C)[C@@H]1CCC(C)=C[C@@H]21 [THC, tetrahydrocannabinol] | a few micrograms/ml or less |
| cannabidiol [CBD] | a few micrograms/ml or less |
